In this assay the test system is platelet activating factor (PAF). As to the kind of experiment: PAF Induced Paw Edema in the Mouse. Type of assay: in vivo, mouse (Charles River CD-1, female). Particulars: for % Inhibition of Edema: 1 hour before PAF (1 ug/paw), 15 min after PAF. As for the experimental part:
The experimental procedure was adapted from Calhoun et al., Agents & Actions, 21:306-309 (1987). Charles River CD-1 female mice (20-25 G) were given a dose of Formula I, or phenidone, using peanut oil as a carrier. Control mice were given doses of the carrier alone. The drugs were administered orally in a 50 μl volume of peanut oil. One hour later, 1.0 μg of PAF dissolved in 50 μl of 5% ethanol-saline was injected subcutaneously into the plantar surface of the right hind paw. The volume of this injected foot to the level of the lateral malleous was measured by water displacement immediately before drug administration and again 15 minutes after PAF injection.
The effectiveness of each compound was analyzed in the following manner. The individual paw volumes were compared by a paired t test analysis in which predrug paw volumes were compared to paw volumes 15 minutes after PAF injection to determine the level of statistical significance. The percent inhibition of edema volume was obtained from the ratio of the mean predrug volume to the mean volume after PAF.

For the compound `CCCCCc1cc(O)c2c(c1)OC(C)(C)C1CC=C(C(=O)O)CC21` (stereo not shown) [Formula I, 6a,7,10,10a-tetrahydro-6,6-dimethyl-9-carboxyl-3-pentyl-6H-dibenzo[b,d]pyran-1-ol], the “% Inhibition of Edema” value (10 mg/kg oral) was determined as 21.8%, the “% Inhibition of Edema” value (20 mg/kg oral) was 50.2% and the “% Inhibition of Edema” value (40 mg/kg oral) is 46.2%. Moreover, the “antagonism of inflammatory actions of PAF (in words)” value (mouse paw edema, oral) was “effective antagonist to the inflammatory actions of PAF”.

The values above are taken from US4973603A, “Platelet activating factor antagonist and methods of use therefor” (priority 1989, dated 1990).
